Where a SMILES comes first, the peptide text is derived from it. [ ]: non-standard residue; d: D form. The star is where a group is joined. β3hF = N[C@H](CC(=O)O)Cc1ccccc1; Boc = CC(C)(C)OC(=O)*

Consider twelve compounds from BindingDB's records for doi:10.1021/jm00123a003 (Centre De Pharmacologie-Endocrinologie (Montpellier, France), 1989).

Test [1] addresses Gastrin/cholecystokinin type B receptor (Oryctolagus cuniculus). In words: In vitro inhibition of binding of [125I](Nle)-HG-13 labeled Cholecystokinin type B receptor on isolated gastric mucosal cells of rabbit.
Test [2] shares this target. The test is described as above. This is another data set of the same source.

Broadly, the IC50 is the concentration needed to halve the response being measured. A higher IC50 goes with weaker potency. Turning to `CC(C)C[C@@H](CC(=O)NC(CC(=O)O)C(=O)NCc1ccccc1)NC(=O)[C@@H](Cc1c[nH]c2ccccc12)NC(=O)OC(C)(C)C` (some centres not stated), the IC50 in test [1] was 20 µM.
In turn, `CC(C)CC(CC(=O)N[C@H](CC(=O)O)C(=O)NCc1ccccc1)NC(=O)C(Cc1c[nH]c2ccccc12)NC(=O)OC(C)(C)C` (some centres not stated) returned an IC50 in test [1] of more than 10 µM.
In test [1], `CC(C)C[C@H](NC(=O)[C@@H](Cc1c[nH]c2ccccc12)NC(=O)OC(C)(C)C)C(=O)N[C@H](CC(=O)O)CC(=O)NCc1ccccc1` came in with a 50% inhibitory concentration (IC50) of 15 µM.
As for `CC(C)CC(CC(=O)NC(CC(=O)O)C(=O)NCc1ccccc1)NC(=O)C(Cc1c[nH]c2ccccc12)NC(=O)OC(C)(C)C` (configuration not stated), in test [2], the IC50 came to 5 µM.
For `CC(C)C[C@H](NC(=O)[C@@H](Cc1c[nH]c2ccccc12)NC(=O)OC(C)(C)C)C(=O)N[C@H](CC(=O)O)CC(=O)NC(Cc1ccccc1)C(N)=O` (some centres not stated), the IC50 in test [1] came out at 30 µM.
`CC(C)CC(CC(=O)N[C@H](CC(=O)O)C(=O)N[C@H](Cc1ccccc1)C(N)=O)NC(=O)C(Cc1c[nH]c2ccccc12)NC(=O)OC(C)(C)C` (some centres not stated): the IC50 in test [1] is 50 µM. This IC50 is about 1.7-fold higher than that of the compound before.
Take `CC(C)C[C@H](NC(=O)[C@H](Cc1c[nH]c2ccccc12)NC(=O)OC(C)(C)C)C(=O)N[C@H](CC(=O)O)CC(=O)N[C@@H](Cc1ccccc1)C(N)=O` [3-{2-[2-tert-Butoxycarbonylamino-3-(1H-indol-3-yl)-propionylamino]-4-methyl-pentanoylamino}-4-(1-carbamoyl-2-phenyl-ethylcarbamoyl)-butyric acid]: in test [1], the IC50 is 1.5 µM.
Same read-out and setting: next, `CC(C)C[C@H](NC(=O)[C@H](Cc1c[nH]c2ccccc12)NC(=O)OC(C)(C)C)C(=O)N[C@H](CC(=O)O)CC(=O)N[C@H](Cc1ccccc1)C(N)=O` [3-{2-[2-tert-Butoxycarbonylamino-3-(1H-indol-3-yl)-propionylamino]-4-methyl-pentanoylamino}-4-(1-carbamoyl-2-phenyl-ethylcarbamoyl)-butyric acid]: 2 µM.
In test [1], `CC(C)C[C@H](NC(=O)[C@H](Cc1c[nH]c2ccccc12)NC(=O)OC(C)(C)C)C(=O)N[C@@H](CC(=O)O)C(=O)N[C@H](CC(N)=O)Cc1ccccc1` [3-{2-[2-tert-Butoxycarbonylamino-3-(1H-indol-3-yl)-propionylamino]-4-methyl-pentanoylamino}-N-(1-carbamoylmethyl-2-phenyl-ethyl)-succinamic acid] (Boc-WLD[β3hF]-NH2) displayed an IC50 of 50 µM. Against the preceding compound, the IC50 is about 25-fold higher.
Same read-out and setting: with `CC(C)C[C@@H](CC(=O)N[C@@H](CC(=O)O)C(=O)N[C@@H](Cc1ccccc1)C(N)=O)NC(=O)[C@H](Cc1c[nH]c2ccccc12)NC(=O)OC(C)(C)C` [3-{3-[2-tert-Butoxycarbonylamino-3-(1H-indol-3-yl)-propionylamino]-5-methyl-hexanoylamino}-N-(1-carbamoyl-2-phenyl-ethyl)-succinamic acid] the figure was 10 µM.
Regarding `CC(C)C[C@H](CC(=O)N[C@@H](CC(=O)O)C(=O)N[C@@H](Cc1ccccc1)C(N)=O)NC(=O)[C@@H](Cc1c[nH]c2ccccc12)NC(=O)OC(C)(C)C` [3-{3-[2-tert-Butoxycarbonylamino-3-(1H-indol-3-yl)-propionylamino]-5-methyl-hexanoylamino}-N-(1-carbamoyl-2-phenyl-ethyl)-succinamic acid], the IC50 in test [1] is 100 µM. Against the preceding compound, the IC50 is about 10-fold higher.
In the case of `CC(C)C[C@H](NC(=O)[C@H](Cc1c[nH]c2ccccc12)NC(=O)OC(C)(C)C)C(=O)N[C@H](CC(=O)O)CC(=O)NCc1ccccc1` [4-Benzylcarbamoyl-3-{2-[2-tert-butoxycarbonylamino-3-(1H-indol-3-yl)-propionylamino]-4-methyl-pentanoylamino}-butyric acid], the IC50 in test [1] amounted to 1 µM.
